Read-outs that look alike come from different tables or passages of the source.
Key:
[1] = for Body weight (g) On administration day / Body weight (g) On distribution day / Body weight (g) On first administration day: Mean ± SD; for Body weight (g) On distribution day: before dosing
[2] = rat, in vivo, po, 250 mg/kg
[3] = STZ-diabetic male rats, mean ± SD; for Absolute body weight, Day −3 (before STZ administration): baseline before STZ and before first TI/RI administration; for Absolute body weight, Day −1 / Absolute body weight, Day −2 (distribution of groups): before first TI/RI administration
[4] = terms of European Pharmacopeia 7.0 section 5.11
blood glucose level = assay: Effect of metformin compounds on the glucokinetic profile after oral glucose overload; type: in vivo, Rat; details: for Blood glucose level, 0.25 h post-glucose overload / Blood glucose level, 0.5 h post-glucose overload / Blood glucose level, 1 h post-glucose overload / Blood glucose level, 2 h post-glucose overload / Blood glucose level, 3 h post-glucose overload / Blood glucose level, 4 h post-glucose overload / Blood glucose level, 6 h post-glucose overload / Blood glucose level, pre-glucose overload: rat, 750 mg/kg referred to metformin base, mean ± SD; for Blood glucose level, 0.25 h post-glucose overload / Blood glucose level, 1 h post-glucose overload / Blood glucose level, 4 h post-glucose overload / Blood glucose level, pre-glucose overload: *p<0.05 vs vehicle; for Blood glucose level, 3 h post-glucose overload: *p<0.05, **p<0.01 vs vehicle; for blood glucose level vs vehicle, after the oral glucose overload: 750 mg/kg for five days, glucose 3 g/kg, isolated time points 0.25-4 hours
[5] = system: rat model of streptozotocin-induced diabetes; assay: Blood glucose levels in rat model of streptozotocin-induced diabetes, 14 days oral; details: for Blood glucose levels before TI/RI administration, Day −1: STZ-diabetic rats, before first TI/RI administration, n.d. = all values beyond ULOD of glucometer (600 mg/dl), § n=1, ¢ n=2; for Blood glucose levels before TI/RI administration, Day −1 / Blood glucose levels before TI/RI administration, Day −3 (before STZ administration): mean ± SD; for Blood glucose levels before TI/RI administration, Day −3 (before STZ administration): rats, baseline before STZ and before first TI/RI administration
[6] = Groups L-U, 750 mg/kg, first column of this head
[7] = Groups L-U, 750 mg/kg, second column of this head

Row | Molecule | Body weight (g) On administration day ([1]; Groups B-K, 250 mg/kg) [g] | Body weight (g) On distribution day ([1]; Groups B-K, 250 mg/kg) [g] | Body weight (g) On distribution day ([1]; Groups L-U, 750 mg/kg) [g] | Body weight (g) On first administration day [1, 6] [g] | Body weight (g) On first administration day [1, 7] [g] | AUC(0-24) [2] [µg·h/mL] | Cmax [2] [ng/mL] | Metformin base concentration in plasma, 0.5 h post-administration [2] [µg/mL] | Metformin base concentration in plasma, 1 h post-administration [2] [µg/mL] | Metformin base concentration in plasma, 2 h post-administration [2] [µg/mL] | Metformin base concentration in plasma, 4 h post-administration [2] [µg/mL] | Metformin base concentration in plasma, 8 h post-administration [2] [µg/mL] | Metformin base concentration in plasma, 24 h post-administration [2] [µg/mL] | Absolute body weight, Day −3 (before STZ administration) [3] [g] | Absolute body weight, Day −1 [3] [g] | Absolute body weight, Day −2 (distribution of groups) [3] [g] | Blood glucose level, 0.5 h post-glucose overload (blood glucose level) [mg/dL] | Blood glucose level, 2 h post-glucose overload (blood glucose level) [mg/dL] | Blood glucose level, 6 h post-glucose overload (blood glucose level) [mg/dL] | Blood glucose levels before TI/RI administration, Day −3 (before STZ administration) [5] [mg/dL] | other results
1 | metformin leucinate | 195.70 ± 9.85 | 187.38 ± 6.74 | 185.53 ± 12.04 | 199.25 ± 9.43 | 193.53 ± 11.92 | 133.32 | 15430 | 10.21 ± 1.77 | 15.43 ± 0.81 | 12.30 ± 2.41 | 12.57 ± 4.13 | 5.88 ± 0.80 | 0.21 ± 0.08 | 234.57 ± 1.87 | 207.93 ± 0.99 | 221.90 ± 6.16 | 90.75 ± 28.16 | 99.00 ± 2.45 | 85.25 ± 2.22 | 118.33 ± 10.02 | Physical form (hygroscopicity) [4]: Deliquescent; Blood glucose level, 0.25 h post-glucose overload (blood glucose level): 87.75 ± 31.40 mg/dL; Blood glucose level, 1 h post-glucose overload (blood glucose level): 99.50 ± 27.50 mg/dL; Blood glucose level, 3 h post-glucose overload (blood glucose level): 91.75 ± 6.99 mg/dL; Blood glucose level, 4 h post-glucose overload (blood glucose level): 89.75 ± 3.69 mg/dL; Blood glucose level, pre-glucose overload (blood glucose level): 72.25 ± 9.29 mg/dL; Blood glucose levels before TI/RI administration, Day −1 [5]: 563.00 ± 36.39 mg/dL
2 | dimetformin aspartate | 188.42 ± 5.42 | 186.02 ± 5.04 | 192.05 ± 6.89 | 207.73 ± 9.57 | 197.30 ± 10.15 | 122.96 | 15500 | 12.43 ± 2.05 | 15.50 ± 4.49 | 13.47 ± 3.13 | 6.05 ± 0.98 | 6.50 ± 1.57 | 0.22 ± 0.11 | 228.17 ± 10.17 | 205.23 ± 6.83 | 219.53 ± 13.36 | 98.50 ± 13.70 | 95.25 ± 8.77 | 89.75 ± 5.50 | 120.00 ± 2.65 | Blood glucose level, 0.25 h post-glucose overload (blood glucose level): 96.00 ± 17.15 mg/dL; Blood glucose level, 1 h post-glucose overload (blood glucose level): 103.75 ± 9.29 mg/dL; Blood glucose level, 3 h post-glucose overload (blood glucose level): 92.00 ± 6.16 mg/dL; Blood glucose level, 4 h post-glucose overload (blood glucose level): 92.75 ± 4.11 mg/dL; Blood glucose level, pre-glucose overload (blood glucose level): 83.25 ± 14.89 mg/dL; Blood glucose levels before TI/RI administration, Day −1 [5]: 572.00^§ ± n.d.^§ mg/dL
3 | metformin threoninate | 193.13 ± 9.66 | 186.22 ± 10.13 | 188.55 ± 6.35 | 202.15 ± 5.48 | 194.20 ± 4.58 | 107.62 | 14300 | 8.81 ± 2.00 | 14.30 ± 1.70 | 11.53 ± 2.61 | 11.43 ± 1.66 | 3.91 ± 0.33 | 0.23 ± 0.08 | 231.13 ± 10.20 | 207.33 ± 8.52 | 216.43 ± 8.74 | 102.67 ± 8.02 | 93.67 ± 10.69 | 89.33 ± 3.06 | 117.33 ± 14.05 | mortality and clinical signs ([1]; glucokinetic groups, 750 mg/kg for five days): died during the study just after the fifth test item administration; Blood glucose level, 0.25 h post-glucose overload (blood glucose level): 110.33 ± 16.92 mg/dL; Blood glucose level, 1 h post-glucose overload (blood glucose level): 101.67 ± 11.85 mg/dL; Blood glucose level, 3 h post-glucose overload (blood glucose level): 91.67 ± 6.03 mg/dL; Blood glucose level, 4 h post-glucose overload (blood glucose level): 87.67 ± 2.08 mg/dL; Blood glucose level, pre-glucose overload (blood glucose level): 90.33 ± 12.34 mg/dL
4 | CN(C)C(=N)NC(=N)N.C[C@H](N)C(=O)O [Metformin alaninate, metformin alaninate] | 202.49 ± 12.79 | 187.52 ± 10.28 | 186.18 ± 8.04 | 200.80 ± 10.15 | 195.43 ± 11.23 | 126.09 | 16400 | 14.77 ± 3.29 | 13.00 ± 1.39 | 14.97 ± 3.57 | 16.40 ± 5.23 | 3.56 ± 1.19 | 0.22 ± 0.08 | 232.07 ± 6.17 | 208.00 ± 2.65 |  | 94.75 ± 13.52 | 87.75 ± 9.00 | 84.00 ± 7.83 | 121.33 ± 6.51 | macroscopic necropsy findings ([1]; 750 mg/kg for five days): small additional lobe; Physical form (hygroscopicity) ([4]; listed as 13. ALANINE): Hygroscopic solid; Physical form (hygroscopicity) ([4]; listed as alanine): hygroscopic; blood glucose level vs vehicle, after the oral glucose overload (blood glucose level; Dunn's test): statistically significant decreases; Blood glucose level, 0.25 h post-glucose overload (blood glucose level): 90.50 ± 13.72 mg/dL; Blood glucose level, pre-glucose overload (blood glucose level): 82.25 ± 7.68 mg/dL; blood glucose levels 2 hours after administration on day 2 vs diabetic animals treated with vehicle ([5]; diabetic rats, 250 mg/kg as metformin base): significantly lower blood glucose levels
5 | diphenformin aspartate |  |  |  |  |  |  |  |  |  |  |  |  |  |  |  |  |  |  |  | 115.33 ± 10.02 | 
6 | CC[C@H](C)[C@H](N)C(=O)O.CN(C)C(=N)NC(=N)N [Metformin isoleucinate, metformin isoleucinate] | 197.30 ± 10.62 | 189.10 ± 7.62 | 190.40 ± 7.71 | 203.33 ± 5.11 | 196.80 ± 11.54 | 148.77 | 21430 | 12.53 ± 1.91 | 14.47 ± 2.58 | 10.05 ± 2.33 | 21.43 ± 3.35 | 4.94 ± 0.80 | 0.24 ± 0.08 | 224.63 ± 9.17 | 211.30 ± 7.51 | 225.17 ± 10.85 | 87.75 ± 12.97 | 76.75 ± 11.44 | 70.75 ± 17.04 | 115.33 ± 4.93 | Physical form (hygroscopicity) ([4]; listed as 12. ISOLEUCIN): Hygroscopic solid; Physical form (hygroscopicity) ([4]; listed as isoleucine): hygroscopic; blood glucose level vs vehicle, before the oral glucose overload (blood glucose level; 750 mg/kg (referred to metformin base) once a day for five days, Dunn's test): statistically significant decrease; blood glucose level vs vehicle, after the oral glucose overload (blood glucose level; Dunn's test): statistically significant decreases; blood glucose level vs vehicle, after the oral glucose overload (blood glucose level; Dunn's test, listed as metformin isoleucinate): statistically significant decrease; Blood glucose level, 1 h post-glucose overload (blood glucose level): 89.75 ± 19.77 mg/dL; Blood glucose level, 4 h post-glucose overload (blood glucose level): 80.50 ± 7.51 mg/dL

Source: patent publication US11510886B2, “Metformin amino acid compounds and methods of using the same” (Laboratorios Silancs S.A. DE C.V., priority 2016, dated 2022)
